According to ChEMBL document CHEMBL1150930, “Metabolism of rosmarinic acid in rats” (J Nat Prod, 1998):

Assays:
Set-up in all cases: dose 200 mg/kg, route oral
[1] = test system: Rattus norvegicus; experiment: Metabolic stability in Sprague-Dawley rat assessed as urinary excretion of trans-m-coumaric acid level at 200 mg/kg, po after 0 to 72 hrs by HPLC; type: ADME, organism-based, Urine; settings: in vivo
[2] = Metabolic stability in Sprague-Dawley rat assessed as urinary excretion of unchanged drug level at 200 mg/kg, po after 0 to 24 hrs by HPLC; type: ADME, organism-based; settings: urine, read-out: Activity
[3] = test system: Rattus norvegicus; experiment: Metabolic stability in Sprague-Dawley rat assessed as urinary excretion of trans-caffeic acid level at 200 mg/kg, po after 0 to 8 hrs by HPLC; type: ADME, organism-based, Urine; settings: in vivo
[4] = test system: Rattus norvegicus; experiment: Metabolic stability in Sprague-Dawley rat assessed as urinary excretion of trans-m-coumaric acid 3-O-sulfate level at 200 mg/kg, po after 0 to 24 hrs by HPLC; type: ADME, organism-based, Urine; settings: in vivo
[5] = test system: Rattus norvegicus; experiment: Metabolic stability in Sprague-Dawley rat assessed as urinary excretion of total metabolites at 200 mg/kg, po after 0 to 8 hrs by HPLC; type: ADME, organism-based, Urine; settings: in vivo
[6] = Metabolic stability in Sprague-Dawley rat assessed as urinary excretion of unchanged drug level at 200 mg/kg, po after 0 to 4 hrs by HPLC; type: ADME, organism-based; settings: urine, read-out: Activity
[7] = test system: Rattus norvegicus; experiment: Metabolic stability in Sprague-Dawley rat assessed as urinary excretion of trans-ferulic acid 4-O-sulfate level at 200 mg/kg, po after 0 to 36 hrs by HPLC; type: ADME, organism-based, Urine; settings: in vivo
[8] = test system: Rattus norvegicus; experiment: Metabolic stability in Sprague-Dawley rat assessed as urinary excretion of trans-caffeic acid level at 200 mg/kg, po after 0 to 36 hrs by HPLC; type: ADME, organism-based, Urine; settings: in vivo
[9] = test system: Rattus norvegicus; experiment: Metabolic stability in Sprague-Dawley rat assessed as urinary excretion of trans-m-coumaric acid level at 200 mg/kg, po after 0 to 48 hrs by HPLC; type: ADME, organism-based, Urine; settings: in vivo
[10] = test system: Rattus norvegicus; experiment: Metabolic stability in Sprague-Dawley rat assessed as urinary excretion of trans-m-coumaric acid level at 200 mg/kg, po after 0 to 36 hrs by HPLC; type: ADME, organism-based, Urine; settings: in vivo
[11] = test system: Rattus norvegicus; experiment: Metabolic stability in Sprague-Dawley rat assessed as urinary excretion of m-hydroxyphenyl-propionic acid level at 200 mg/kg, po after 0 to 24 hrs by HPLC; type: ADME, organism-based, Urine; settings: in vivo
[12] = test system: Rattus norvegicus; experiment: Metabolic stability in Sprague-Dawley rat assessed as urinary excretion of trans-m-coumaric acid level at 200 mg/kg, po after 0 to 24 hrs by HPLC; type: ADME, organism-based, Urine; settings: in vivo
[13] = test system: Rattus norvegicus; experiment: Metabolic stability in Sprague-Dawley rat assessed as urinary excretion of trans-caffeic acid 4-O-sulfate level at 200 mg/kg, po after 0 to 72 hrs by HPLC; type: ADME, organism-based, Urine; settings: in vivo
[14] = Metabolic stability in Sprague-Dawley rat assessed as urinary excretion of unchanged drug level at 200 mg/kg, po after 0 to 12 hrs by HPLC; type: ADME, organism-based; settings: urine, read-out: Activity
[15] = test system: Rattus norvegicus; experiment: Metabolic stability in Sprague-Dawley rat assessed as urinary excretion of trans-m-coumaric acid 3-O-sulfate level at 200 mg/kg, po after 0 to 36 hrs by HPLC; type: ADME, organism-based, Urine; settings: in vivo
[16] = test system: Rattus norvegicus; experiment: Metabolic stability in Sprague-Dawley rat assessed as urinary excretion of total metabolites at 200 mg/kg, po after 0 to 36 hrs by HPLC; type: ADME, organism-based, Urine; settings: in vivo
[17] = test system: Rattus norvegicus; experiment: Metabolic stability in Sprague-Dawley rat assessed as urinary excretion of trans-ferulic acid 4-O-sulfate level at 200 mg/kg, po after 0 to 4 hrs by HPLC; type: ADME, organism-based, Urine; settings: in vivo
[18] = test system: Rattus norvegicus; experiment: Metabolic stability in Sprague-Dawley rat assessed as urinary excretion of trans-m-coumaric acid 3-O-sulfate level at 200 mg/kg, po after 0 to 48 hrs by HPLC; type: ADME, organism-based, Urine; settings: in vivo
[19] = test system: Rattus norvegicus; experiment: Metabolic stability in Sprague-Dawley rat assessed as urinary excretion of m-hydroxyphenyl-propionic acid level at 200 mg/kg, po after 0 to 48 hrs by HPLC; type: ADME, organism-based, Urine; settings: in vivo
[20] = test system: Rattus norvegicus; experiment: Metabolic stability in Sprague-Dawley rat assessed as urinary excretion of total metabolites at 200 mg/kg, po after 0 to 12 hrs by HPLC; type: ADME, organism-based, Urine; settings: in vivo
[21] = Metabolic stability in Sprague-Dawley rat assessed as urinary excretion of unchanged drug level at 200 mg/kg, po after 0 to 48 hrs by HPLC; type: ADME, organism-based; settings: urine, read-out: Activity
[22] = test system: Rattus norvegicus; experiment: Metabolic stability in Sprague-Dawley rat assessed as urinary excretion of trans-caffeic acid 4-O-sulfate level at 200 mg/kg, po after 0 to 4 hrs by HPLC; type: ADME, organism-based, Urine; settings: in vivo
[23] = test system: Rattus norvegicus; experiment: Metabolic stability in Sprague-Dawley rat assessed as urinary excretion of trans-caffeic acid 4-O-sulfate level at 200 mg/kg, po after 0 to 36 hrs by HPLC; type: ADME, organism-based, Urine; settings: in vivo
[24] = test system: Rattus norvegicus; experiment: Metabolic stability in Sprague-Dawley rat assessed as urinary excretion of trans-ferulic acid 4-O-sulfate level at 200 mg/kg, po after 0 to 24 hrs by HPLC; type: ADME, organism-based, Urine; settings: in vivo
[25] = test system: Rattus norvegicus; experiment: Metabolic stability in Sprague-Dawley rat assessed as urinary excretion of total metabolites at 200 mg/kg, po after 0 to 24 hrs by HPLC; type: ADME, organism-based, Urine; settings: in vivo
[26] = test system: Rattus norvegicus; experiment: Metabolic stability in Sprague-Dawley rat assessed as urinary excretion of m-hydroxyphenyl-propionic acid level at 200 mg/kg, po after 0 to 72 hrs by HPLC; type: ADME, organism-based, Urine; settings: in vivo

For `O=C(/C=C/c1ccc(O)c(O)c1)O[C@H](Cc1ccc(O)c(O)c1)C(=O)O` [ROSMARINIC ACID], the Activity [1] was 0.413%, the dose excreted [2] was 0.077% and the Activity [3] was 0.027%. It also gave an Activity [4] of 7.456%, an Activity [5] of 1.476% and a dose excreted [6] of 0.041%. The Activity [7] was 0.559%, the Activity [8] was 0.086% and the Activity [9] was 0.413%. For the same compound, the Activity [10] was 0.399%, the Activity [11] was 14.527% and the Activity [12] was 0.333%. It also gave an Activity [13] of 0.154%, a dose excreted [14] of 0.077% and an Activity [15] of 11.778%. For the same compound, the Activity [16] was 30.483%, the Activity [17] was 0.081% and the Activity [18] was 12.137%. For the same compound, the Activity [19] was 18.357%, the Activity [20] was 6.241% and the dose excreted [21] was 0.077%. The Activity [22] was 0.038%, the Activity [23] was 0.154% and the Activity [24] was 0.538%. For the same compound, the Activity [25] was 23.143% and the Activity [26] was 18.357%.
